Data from US20150165097A1, “HARDENABLE ANTIMICROBIAL COMPOSITION” (priority 2012, published 2015).
Counter-ions that a name gives are not always drawn. Like-named read-outs stand apart in the source and are kept apart here.

Tests used:
[1] = Solubility / solution appearance of antimicrobial agent in vehicle before addition of PVC
Procedure: The antimicrobial agent was added to a small vial. For samples containing CPC or OCT, benzyl alcohol (BzOH, available from Mallinkrodt Baker Inc. of Phillipsburg, N.J.), was also added and the mixture was vortexed. Zinc octoate (ZnOct) was then added to the mixture. In a separate jar, a batch mixture containing DINCH, ESO and di-IDPP was prepared; the solution was allowed to roll until a clear/colorless mixture was obtained with no mixing lines. In a separate jar, the appropriate amount of batch mixture was added into the vial containing the antimicrobial agent, solvent, and zinc octoate (ZnOct). The mixture was vortexed and the solution was allowed to roll at a setting of 60 rpm until a determination was made as to whether or not the antimicrobial was dissolving in the solution.
The BKC was dispensed into a 25 mL vial. To this was added the DINCH, TIDP, and ZnOct in that order. The vial was then capped and vortexed for several seconds, and then placed on rollers set at 65 rpm in order to promote the dissolution (if possible) of the BKC. […]
The antimicrobial agents assessed were BKC, BZT, OCT, PCMX, POEtOH, and PHMB. The amount of each antimicrobial agent added was calculated to be equal to the same number of moles of BKC at 1.5 wt % in the plastisol formulation. […]

[2] = Solubility of antimicrobial agent in plasticizer alone (Example 1); format: physicochemical
Procedure: The solubility of three different antimicrobial agents: benzalkonium chloride (BKC), octenidine dihydrochloride (OCT), and polyhexamethylene biguanide (PHMB); in various plasticizers was evaluated by the following procedure. The antimicrobial agent was added to a small vial; to this, the plasticizer of interest was added. […] In each solution, 1.5% wt/wt of one antimicrobial agent (BKC, OCT, or PHMB) was combined with 98.5% wt/wt of one of each of the following plasticizers: DINCH, acetyl tributyl citrate, trioctyl trimellitate, dioctyl adipate, or polyester adipate.

[3] = Solubility of antimicrobial agent in plasticizer with heat stabilizer package (Example 2), judged visually; conditions: 1.1 wt %; ESO, DDPP and ZnOct present
Procedure: To the vial containing the plasticizer and antimicrobial, the appropriate amount (see below) of a master batch solution of PVC heat stabilizer was added. The master batch solution of PVC heat stabilizer included: epoxidized soybean oil (ESO), decyl diphenyl Phosphite (DDPP), and zinc octoate (ZnOct). The solution was allowed to roll overnight at ambient temperature at 60 rpm to determine if the antimicrobial was soluble in that system. Samples were evaluated visually for solubility. […] Samples that were clear were judged to have the cationic antimicrobial completely soluble. Those that were hazy were judged to have the antimicrobial partially soluble. Those that were opaque white were substantially insoluble.

Compound | Solubility in MESAMOLL ([1]; Example 8, BZT: at low concentrations of ZnOct, OCT: even with increasing amounts of ZnOct) | Solubility in plasticizer ([2]; 1.5% wt/wt antimicrobial agent in 98.5% wt/wt DINCH, acetyl tributyl citrate, trioctyl trimellitate, dioctyl adipate or polyester adipate, rolled 16 hours at 60 rpm) | Solubility in DINCH, ATC, TOTM, DOA and PEA with heat stabilizing package [3] | Solubility of BKC in DINCH, TIDP vehicle ([1]; Example 4, in the absence of ZnOct) | Solubility in plasticizer [2]
OCCOc1ccccc1 [POEtOH, 2-phenoxyethanol] | well below their solubility limits |  |  |  | 
Polyhexamethylene biguanide [PHMB] |  | none of these antimicrobial agents were soluble | not soluble |  | 
CCCCCCCCCCCCCC[N+](C)(C)Cc1ccccc1.[Cl-] [BKC, Benzyl dimethyl tetradecyl ammonium chloride] |  |  | soluble | much less solubility | none of these antimicrobial agents were soluble
CCCCCCCCN=c1ccn(CCCCCCCCCCn2ccc(=NCCCCCCCC)cc2)cc1 [OCT, Octenidine dihydrochloride] |  |  | not soluble |  | none of these antimicrobial agents were soluble
